According to patent publication US20240041830A1, “CIRCULATING BIOMARKERS OF RESPONSE TO PD-1/PD-L1 BLOCKADE AND GSK-3 INHIBITION” (Brown University, priority 2022, published 2024):

Legend:
[1] = test system: HCT-116; assay: Luminex 200 cytokine profiling of cell culture supernatant; type: cell-based, human; settings: 1 μM or 5 μM, forty-eight hours
Procedure: (§1) Collection of cell culture supernatants used in cytokine measurements. Cells were plated at 3.5×10^4 cells in a 48-well plate (Thermo Fisher Scientific, Waltham, MA, USA) in complete medium and incubated at 37° C. with 5% CO2. At twenty-four hours after plating, almost all the tumor cells were adherent to the bottom of the flask and the complete medium was replaced with the drug-containing medium. Subsequently, the culture supernatants were collected after forty-eight hours of incubation and were frozen at −80° C. until the measurement of cytokines was performed. On the day of analysis, samples were thawed and centrifuged to remove cellular debris.
(§2) Human cytokine profiling. Human cell line culture supernatants were analyzed using an R&D systems Human Premixed Multi-Analyte Kit (R&D Systems, Inc., Minneapolis, MN, USA) and a Luminex 200 (RRID: SCR_018025) Instrument (LX200-XPON-RUO, Luminex Corporation, Austin, TX, USA) according to the manufacturer's instructions. Sample levels of TNF-α, 4-1BB/TNFRSF9/CD137, IL-8/CXCL8, Ferritin, IFN-β, IL-10, CCL2/JE/MCP-1, VEGF, CXCL13/BLC/BCA-1, IFN-γ, CCL20/MIP-3 α, CCL3/MIP-1 α, CCL22/MDC, CCL4/MIP-1 β, Fas Ligand/TNFSF6, IL-17/1L-17A, IL-2, BAFF/BLyS/TNFSF13B, GM-CSF, CXCLS/ENA-78, TRANCE/TNFSF11/RANK L, CXCL9/MIG, G-CSF, IFN-γ R1/CD119, VEGFR3/Flt-4, C-Reactive Protein/CRP, CXCL11/I-TAC, IL-21, CXCL14/BRAK, IL-6, Fas/TNFRSF6/CD95, TRAIL R3/TNFRSF10C, IL-4, CCL5/RANTES, PD-L1/137-H1, CCL7/MCP-3/MARC, Chitinase 3-like 1, CXCL10/IP-10/CRG-2, IL-1 μ/IL-1F2, IL-7, Prolactin, CCL8/MCP-2, TRAIL R2/TNFRSF10B, M-CSF, IL-15, Granzyme B, IFN-α, TREM-1, IL-12/1L-23 p40, TRAIL/TNFSF10, CCL11/Eotaxin, and 1L-18/1L-1F4. Quantitative analysis with 6 standards and a minimum of 50 counts per bead region was used with the Luminex to generate analyte values reported as picograms/milliliter (pg/mL). Sample concentrations less than the lower limit of detection for each particular analyte were recoded as the lower limit value divided by 10. Sample concentrations above the upper limit of detection for a particular analyte were recoded as the upper limit of detection.
(§3) Huntington, Louie, Zhou, & EI-Deiry, Oncotarget, 12, 1980-1991 (2021). The inventors in this EXAMPLE treated tumor cells (HCT-116, HT-29) with 1 μM or 5 μM elraglusib for forty-eight hours and subsequently analyzed the cell culture supernatant using Luminex 200 technology (FIG. 2H,I).

[2] = test system: HT-29; assay: as above; type: cell-based, human; settings: 1 μM or 5 μM, forty-eight hours
Procedure: as §1, §2, §3

`Cn1cc(C2=C(c3coc4ccc(F)cc34)C(=O)NC2=O)c2cc3c(cc21)OCO3` [elraglusib] was tested, and the GDF-15 secretion [1] was “decreased secretion”, the GM-CSF secretion [1] was “decreased secretion” and the VEGF secretion [1] was “decreased secretion”. For the same compound, the CCL5/RANTES in supernatant ([1]; cell line not given) was “downregulated”, the DcR3 in supernatant ([1]; cell line not given) was “downregulated” and the Fas in supernatant ([1]; cell line not given) was “downregulated”. For the same compound, the “soluble PD-L1 (sPD-L1) in supernatant” value ([1]; cell line not given) was “downregulated”, the GDF-15 secretion [2] was “decreased secretion” and the GM-CSF secretion [2] was “decreased secretion”. For the same compound, the VEGF secretion [2] was “decreased secretion”, the CCL5/RANTES in supernatant ([2]; cell line not given) was “downregulated” and the DcR3 in supernatant ([2]; cell line not given) was “downregulated”. For the same compound, the Fas in supernatant ([2]; cell line not given) was “downregulated” and the “soluble PD-L1 (sPD-L1) in supernatant” value ([2]; cell line not given) was “downregulated”.
